Each molecule was assayed against CSF-1R (Homo sapiens (Human), UniProt P07333) (assay: In vitro CSF-1R kinase activity measured by trFRET). Conditions: recombinant human catalytic domain (aa 538-910), 0.1 mM ATP; read-out: CSF-1R enzyme IC50.
Assay type: biochemical
Experimental: In Vitro CSF-1R Kinase Activity Measured by Time-Resolved Fluorescence Resonance Energy Transfer (trFRET)
The CSF-1R construct corresponds to recombinant human catalytic domain (aa 538-910), which was purchased from Invitrogen (cat #PV4092). CSF-1R was mixed with peptide substrate (biotin-TYR1, Sequence: Biotin-(Ahx)-GAEEEIYAAFFA-COOH, 4 μM final) at varying inhibitor concentrations in reaction buffer: 50 mM MOPSO pH 6.5, 10 mM MgCl2, 2 mM MnCl2, 2.5 mM DTI, 0.01% BSA, 0.1 mM Na3VO4 and 0.1 mM ATP. After about 60 min incubation at rt, the reaction was quenched by addition of EDTA (final concentration: 100 mM) and developed by addition of detection reagents (final approximate concentrations: 30 mM HEPES pH 7.0, 0.06% BSA, 0.006% Tween-20, 0.24 M KF, 80 ng/mL PT66K (europium labeled anti-phosphotyrosine antibody cat #61T66KLB Cisbio, Bedford, Mass.) and 0.6 μg/mL SAXL (Phycolink streptavidin-allophycocyanin acceptor, cat #PJ25S, Prozyme, San Leandro, Calif.). The developed reaction was incubated in the dark for about 60 min at rt, then read via a time-resolved fluorescence detector (Rubystar, BMG) using a 337 nm laser for excitation and monitoring emission wavelength at 665 nm. Within the linear range of the assay, the observed signal at 665 nm was directly related to phosphorylated product and can be used to calculate the IC50 values.

Chain of CSF-1R (P07333 538-910): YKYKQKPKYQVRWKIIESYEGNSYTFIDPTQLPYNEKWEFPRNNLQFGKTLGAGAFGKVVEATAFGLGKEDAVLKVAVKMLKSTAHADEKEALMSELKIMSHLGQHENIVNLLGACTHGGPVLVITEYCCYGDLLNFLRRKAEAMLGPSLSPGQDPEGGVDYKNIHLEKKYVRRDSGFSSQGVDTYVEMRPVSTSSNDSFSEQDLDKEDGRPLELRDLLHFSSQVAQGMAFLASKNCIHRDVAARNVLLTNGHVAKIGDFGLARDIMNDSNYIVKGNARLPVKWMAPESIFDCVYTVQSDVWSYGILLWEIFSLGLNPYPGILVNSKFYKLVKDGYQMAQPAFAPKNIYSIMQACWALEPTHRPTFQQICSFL

| SMILES | IC50 |
| --- | --- |
| Cn1cc(Nc2nc([C@H]3CC[C@@H](C)CC3)cn3ncnc23)cn1 [E.1.4] | < 100 nM |
| Cn1cc(Nc2nc([C@H]3CC[C@H](C(F)(F)F)CC3)cn3ncnc23)cn1 [E.1.5, N-(1-methyl-1H-pyrazol-4-yl)-6-((1R,4R)-4-(trifluoromethyl)cyclohexyl)-[1,2,4]triazolo[1,5-a]pyrazin-8-amine] | < 100 nM |
| c1nc2c(Nc3cc4n(n3)CCOC4)cc(C3CCCCC3)cn2n1 [E.1.6, N-(6-cyclohexyl-[1,2,4]triazolo[1,5-a]pyridin-8-yl)-6,7-dihydro-4H-pyrazolo[5,1-c][1,4]oxazin-2-amine] | < 100 nM |
| CN1CCn2nc(Nc3cc(C4CCCCC4)cn4ncnc34)cc2C1 [E.1.7, 6-cyclohexyl-N-(5-methyl-4,5,6,7-tetrahydropyrazolo[1,5-a]pyrazin-2-yl)-[1,2,4]triazolo[1,5-a]pyridin-8-amine] | < 100 nM |
| Cn1cc(Nc2nc(C3CCCC3)cn3ncnc23)cn1 [E.1.8, 6-cyclopentyl-N-(1-methyl-1H-pyrazol-4-yl)-[1,2,4]triazolo[1,5-a]pyrazin-8-amine] | < 100 nM |
| CN1CCn2nc(Nc3cc(C4CCCC4)cn4ncnc34)cc2C1 [E.1.9, 6-cyclopentyl-N-(5-methyl-4,5,6,7-tetrahydropyrazolo[1,5-a]pyrazin-2-yl)-[1,2,4]triazolo[1,5-a]pyridin-8-amine] | < 100 nM |
| Cn1cc(Nc2nc(C3CCCCC3)cn3ncnc23)cn1 [E.1.10, 6-cyclohexyl-N-(1-methyl-1H-pyrazol-4-yl)-[1,2,4]triazolo[1,5-a]pyrazin-8-amine] | < 100 nM |
| CC(C)(O)Cn1cc(Nc2nc(C3CCCCC3)cn3ncnc23)cn1 [Example 11, 1-(4-((6-cyclohexyl-[1,2,4]triazolo[1,5-a]pyrazin-8-yl)amino)-1H-pyrazol-1-yl)-2-methylpropan-2-ol] | < 100 nM |
| c1nc2c(Nc3cc4n(n3)CCOC4)cc(C3CCCC3)cn2n1 [Example 12, N-(6-cyclopentyl-[1,2,4]triazolo[1,5-a]pyridin-8-yl)-6,7-dihydro-4H-pyrazolo[5,1-c][1,4]oxazin-2-amine] | < 100 nM |
| OC1CCN(c2ccc(Nc3cc(C4CCCCC4)cn4ncnc34)nc2)CC1 [Example 13, 1-(6-((6-cyclohexyl-[1,2,4]triazolo[1,5-a]pyridin-8-yl)amino)pyridin-3-yl)piperidin-4-ol] | < 100 nM |
| OCCCn1cc(Nc2nc(C3CCCCC3)cn3ncnc23)cn1 [Example 15, 3-(4-((6-cyclohexyl-[1,2,4]triazolo[1,5-a]pyrazin-8-yl)amino)-1H-pyrazol-1-yl)propan-1-ol] | < 100 nM |

Other lines, results leading:

| IC50 | SMILES |
| --- | --- |
| < 100 nM | CN1CCC(n2cc(Nc3nc(C4CCCCC4)cn4ncnc34)cn2)CC1 [Example 14, 6-cyclohexyl-N-(1-(1-methylpiperidin-4-yl)-1H-pyrazol-4-yl)-[1,2,4]triazolo[1,5-a]pyrazin-8-amine] |
| < 100 nM | O=C(O)[C@H]1CC[C@@H](n2cc(Nc3nc(C4CCCCC4)cn4ncnc34)cn2)CC1 [Example 16, cis-4-(4-((6-cyclohexyl-[1,2,4]triazolo[1,5-a]pyrazin-8-yl)amino)-1H-pyrazol-1-yl)cyclohexanecarboxylic acid] |
| < 100 nM | C[C@@H]1C[C@@H](n2cc(Nc3nc(C4CCCCC4)cn4ncnc34)cn2)C[C@H](C)N1 [Example 17, 6-cyclohexyl-N-(1-((2R,4S,6S)-2,6-dimethylpiperidin-4-yl)-1H-pyrazol-4-yl)-[1,2,4]triazolo[1,5-a]pyrazin-8-amine] |
| < 100 nM | CC(=O)N1CCC(n2cc(Nc3nc(C4CCCCC4)cn4ncnc34)cn2)CC1 [F.1.43, 1-(4-(4-((6-cyclohexyl-[1,2,4]triazolo[1,5-a]pyrazin-8-yl)amino)-1H-pyrazol-1-yl)piperidin-1-yl)ethanone] |
| < 100 nM | CNC(=O)N1CCC(n2cc(Nc3nc(C4CCCCC4)cn4ncnc34)cn2)CC1 [F.1.44, 4-(4-((6-cyclohexyl-[1,2,4]triazolo[1,5-a]pyrazin-8-yl)amino)-1H-pyrazol-1-yl)-N-methylpiperidine-1-carboxamide] |
| < 100 nM | O[C@H]1CCC[C@H](n2cc(Nc3nc(C4CCCCC4)cn4ncnc34)cn2)C1 [G.1.1] |
| < 100 nM | O[C@@H]1CCC[C@@H](n2cc(Nc3nc(C4CCCCC4)cn4ncnc34)cn2)C1 [G.1.2] |
| < 100 nM | O[C@@H]1CCC[C@H](n2cc(Nc3nc(C4CCCCC4)cn4ncnc34)cn2)C1 [G.1.3] |

— patent publication US10280184B2, “Heterocyclic kinase inhibitors” (AbbVie Inc., priority 2014, dated 2019)
